Our source for the IC50 and Ki values is patent US20120041012A1, “SUBSTITUTED SPIROCYCLIC AMINES USEFUL AS ANTIDIABETIC COMPOUNDS” (priority 2009, published 2012).

A value given as a limit tells only on which side of the number the result lay.

Assay [1] deals with T1, SSTR5 (Homo sapiens, UniProt P35346). Briefly: Functional assay of SSTR5 mediated cyclic AMP production in SSTR5 expressing CHO cells. Format: cell-based, human or mouse. Particulars: Table 2; FSK plus SS-28; read-out: SSTR5 (cAMP) IC50.
T1 sequence (P35346 whole entry): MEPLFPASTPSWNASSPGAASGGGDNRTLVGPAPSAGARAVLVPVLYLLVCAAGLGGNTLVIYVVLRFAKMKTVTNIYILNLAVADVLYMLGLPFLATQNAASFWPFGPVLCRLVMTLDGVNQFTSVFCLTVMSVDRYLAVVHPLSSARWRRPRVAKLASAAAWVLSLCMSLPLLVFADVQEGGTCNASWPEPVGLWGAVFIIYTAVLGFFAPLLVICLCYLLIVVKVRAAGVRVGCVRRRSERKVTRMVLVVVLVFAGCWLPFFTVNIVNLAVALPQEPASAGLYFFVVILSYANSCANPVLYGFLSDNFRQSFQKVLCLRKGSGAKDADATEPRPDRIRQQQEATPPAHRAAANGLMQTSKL
Assay [2] deals with T1, SSTR5. Put plainly: SSTR5 receptor-ligand binding assay, CHO-K1 cell membranes, 125I-SRIF radioligand. Further details: expressed in transfected cells; host or cells: CHO-K1 (membranes). The conditions noted are these: Table 2. As to the method:
The receptor-ligand binding assays of all 5 subtype of SSTRs were performed with membranes isolated from Chinese hamster ovary (CHO)-K1 cells stably expressing the cloned human somatostatin receptors in 96-well format as previous reported.
The stable cell lines for SSTR1-SSTR5 were developed by stably transfecting with DNA for all five SSTRs using Lipofectamine. […] The assay buffer consisted of 50 mM TrisHCl (pH 7.8) with 1 mM EGTA, 5 mM MgCl2, leupeptin (10 μg/mL), pepstatin (10 μg/mL), bacitracin (200 μg/mL), and aprotinin (0.5 μg/mL). CHO-K1 cell membranes, radiolabeled somatostatin, and unlabeled test compounds were resuspended or diluted in this assay buffer. Unlabeled test compounds were examined over a range of concentrations from 0.01 nM to 10,000 nM.

As a reminder, the IC50 is the concentration needed to halve the response being measured. By Ki is commonly meant a dissociation constant, usually derived from enzyme kinetics or from competition with a known ligand. Low readings indicate tighter binding, high ones weaker binding. Turning to `CCOc1cc(CN2CCC3(CC2)CC(=O)N(c2ccc(C(=O)O)cc2)C3)cc(OCC)c1-c1ccc(OC(F)(F)F)cc1` [Example 37], the 50% inhibitory concentration (IC50) at SSTR5 [1] stood at 0.6 nM. Also, the inhibition constant (Ki) on SSTR5 [2] turned out to be 0.485 nM.
Regarding `CCOc1cc(CN2CCC3(CC2)CC(=O)N(c2nccc(O)n2)C3)cc(OCC)c1-c1ccc(F)cc1` [Example 87], the half-maximal inhibitory concentration (IC50) on SSTR5 [1] worked out at 64 nM. The molecule also registered an inhibition constant (Ki) at SSTR5 [2] of 337 nM.
As to `CCOc1ccc(-c2ccc(F)cc2F)c(CN2CCC3(CC2)CC(=O)N(c2ccc(C(=O)O)cc2)C3)c1` [Example 94], the concentration for half-maximal inhibition (IC50) at SSTR5 [1] was found to be 7.3 nM. Besides, at SSTR5 [2], the inhibition constant (Ki) was determined as 11 nM.
As to `CCOc1cc(CN2CCC3(CC2)CC(=O)N(c2cccc(-c4nnn[nH]4)c2)C3)cc(OCC)c1-c1ccc(F)cc1` [Example 59], the IC50 at SSTR5 [1] was 4.7 nM. Further, the Ki on SSTR5 [2] turned out to be 3.6 nM.
As to `O=C(O)c1ccc(N2CC3(CCN(Cc4cc(OC5CC5)c(-c5ncc(F)cc5F)c(OC5CC5)c4)CC3)CC2=O)cc1` [Example 66], the concentration for half-maximal inhibition (IC50) on SSTR5 [1] turned out to be 1.8 nM. The inhibitory constant (Ki) at SSTR5 [2] is 4.5 nM.
Take `CCOc1cc(CN2CCC3(CC2)CC(=O)N(c2ccc(C(=O)O)cc2)C3)cc(OCC)c1OCC` [Example 148]: the 50% inhibitory concentration (IC50) at SSTR5 [1] was found to be 82 nM. This molecule also had a Ki on SSTR5 [2] of 157 nM.
For `CCOc1cc(CN2CCC3(CC2)CC(=O)N(c2ccc(C(=O)O)cc2)C3)cc(OCC)c1-c1cc(F)ccc1F` [Example 44], in that order: 0.28 nM and 1.55 nM.
Take `CCOc1cc(CN2CCC3(CC2)CC(=O)N(c2ccccc2S(C)(=O)=O)C3)cc(OCC)c1-c1ccc(F)cc1` [Example 61]: on SSTR5 [1], the IC50 came to 13 nM. The molecule further showed a Ki on SSTR5 [2] of 2 nM.
The matching figures for `CCOc1cc(CN2CCC3(CC2)CC(=O)N(c2cncc(C(=O)O)c2)C3)cc(OCC)c1-c1ccc(F)cc1` [Example 57]: 3.6 nM and 10 nM.
For the molecule `CCOc1cc(CN2CCC3(CC2)CC(=O)N(CCCC(=O)O)C3)cc(OCC)c1-c1ccc(F)cc1` [Example 23], on SSTR5 [1], the IC50 was 44 nM. Moreover, at SSTR5 [2], the affinity corresponds to a Ki of 53 nM.
Turning to `CCOc1cc(CN2CCC3(CC2)CC(=O)N(c2cccc(C(N)=O)c2)C3)cc(OCC)c1-c1ccc(F)cc1` [Example 60], at SSTR5 [1], the IC50 turned out to be 16 nM. The inhibitory constant (Ki) at SSTR5 [2] came out at 4.1 nM.
On to `CCOc1cc(CN2CCC3(CC2)CC(=O)N(c2ccc(C(=O)O)cc2)C3)cc(-c2ccc(F)cc2F)c1` [Example 107], for which the half-inhibitory concentration (IC50) on SSTR5 [1] worked out at 36 nM. This molecule also displayed a Ki at SSTR5 [2] of 40 nM.
As to `CCOc1cc(CN2CCC3(CC2)CC(=O)N(Cc2cccc(C(=O)O)c2)C3)cc(OCC)c1-c1ccc(F)cc1` [Example 52], the IC50 at SSTR5 [1] stood at 21 nM. The affinity at SSTR5 [2] corresponds to a Ki of 67 nM.
For the molecule `CCOc1cc(CN2CCC3(CC2)CC(=O)N(c2ccc(O)nc2)C3)cc(OCC)c1-c1ccc(F)cc1` [Example 74], the IC50 at SSTR5 [1] came out at 3.1 nM. On SSTR5 [2], this molecule gave an inhibitory constant (Ki) of 3.1 nM.
Consider `CCOc1cc(CN2CCC3(CC2)CC(=O)N(c2ccc(C(=O)O)cc2)C3)cc(OCC)c1-c1ncc(F)cc1F` [Example 65], for which, at SSTR5 [1], the IC50 came out at 3.6 nM. Besides, the Ki on SSTR5 [2] was determined as 4.5 nM.
On to `CCOc1cc(CN2CCC3(CC2)CC(=O)N(c2ccc(C(=O)O)cc2)C3)cc(OCC)c1Br` [Example 5], for which, on SSTR5 [1], the IC50 came to 3.9 nM. Moreover, at SSTR5 [2], the Ki turned out to be 7.5 nM.
The matching figures for `CCOc1cc(CN2CCC3(CC2)CC(=O)N(c2ccc(C(N)=O)cc2)C3)cc(OCC)c1-c1ccc(F)cc1` [Example 3, 4-{8-[(2,6-diethoxy-4′-fluorobiphenyl-4-yl)methyl]-3-oxo-2,8-diazaspiro[4.5]dec-2-yl}benzamide trifluoromethyl acetate]: 33 nM and 8.7 nM.
Take `CCOc1cc(CN2CCC3(CC2)CC(=O)N(c2ccc(C(=O)O)cc2)C3)ccc1Cl` [Example 159]: the IC50 on SSTR5 [1] turned out to be 61 nM. The molecule further registered a Ki on SSTR5 [2] of 130 nM.
The matching figures for `CC(C)Oc1cc(CN2CCC3(CC2)CC(=O)N(c2ccc(C(=O)O)cc2)C3)cc(OC(C)C)c1C#N` [Example 152]: 15 nM and 14 nM.
For `O=C(O)c1ccc(N2CC3(CCN(Cc4cc(O)c(-c5ccc(F)cc5)c(O)c4)CC3)CC2=O)cc1` [Example 162], in that order: over 1000 nM and 1600 nM.
On to `CCOc1cc(CN2CCC3(CC2)CC(=O)N(c2cncc(O)c2)C3)cc(OCC)c1-c1ccc(F)cc1` [Example 81], for which, on SSTR5 [1], the half-maximal inhibitory concentration (IC50) was 7.9 nM. Moreover, the affinity on SSTR5 [2] corresponds to a Ki of 3.7 nM.
On to `CCOc1cc(CN2CCC3(CC2)CC(=O)N(c2ccc(C(=O)O)cc2)C3)cc(OCC)c1-c1ccc(F)c(F)c1F` [Example 45], for which the concentration for half-maximal inhibition (IC50) on SSTR5 [1] worked out at 1.5 nM. At SSTR5 [2], this molecule came in with an inhibitory constant (Ki) of 0.84 nM.
Regarding `CCOc1ccc(-c2ccc(F)c(F)c2F)c(CN2CCC3(CC2)CC(=O)N(c2ccc(C(=O)O)cc2)C3)c1` [Example 97], the IC50 at SSTR5 [1] worked out at 1.8 nM. For the same molecule, the Ki on SSTR5 [2] amounted to 7.5 nM.
The matching figures for `CCOc1cc(CN2CCC3(CC2)CC(=O)N(CC(=O)O)C3)cc(OCC)c1-c1ccc(F)cc1` [Example 8, {8-[(2,6-diethoxy-4′-fluorobiphenyl-4-yl)methyl]-3-oxo-2,8-diazaspiro[4.5]dec-2-yl}acetic acid trifluoromethyl acetate]: 159 nM and 190 nM.
In the case of `CCOc1cc(CN2CCC3(CC2)CC(=O)N(CCO)C3)cc(OCC)c1-c1ccc(F)cc1` [Example 9, 8-[(2,6-diethoxy-4′-fluorobiphenyl-4-yl)methyl]-2-(2-hydroxyethyl)-2,8-diazaspiro[4.5]decan-3-one trifluoromethyl acetate], the concentration for half-maximal inhibition (IC50) at SSTR5 [1] worked out at 159 nM. On SSTR5 [2], this molecule came in with an inhibition constant (Ki) of 71 nM.
The matching figures for `CCOc1cc(CN2CCC3(CC2)CC(=O)N(c2ccc(C(=O)O)cc2)C3)cc(OCC)c1OCC(F)(F)F` [Example 153]: 42 nM and 55 nM.
Take `CCOc1cc(CN2CCC3(CC2)CC(=O)N(c2ccc(C(=O)O)nc2)C3)cc(OCC)c1-c1ccc(F)cc1` [Example 85]: on SSTR5 [1], the 50% inhibitory concentration (IC50) turned out to be 6.17 nM. Besides, the Ki at SSTR5 [2] turned out to be 5.27 nM.
With `CCOc1cc(CN2CCC3(CC2)CC(=O)N(c2ccc(C(=O)O)cc2)C3)cc(OCC)c1-c1ccc(C(F)(F)F)cc1` [Example 35], the half-maximal inhibitory concentration (IC50) at SSTR5 [1] stood at 0.62 nM. The molecule further showed an inhibition constant (Ki) at SSTR5 [2] of 0.86 nM.
Regarding `CCOc1cc(CN2CCC3(CC2)CC(=O)N(c2ccc(-c4nnn[nH]4)cc2)C3)cc(OCC)c1-c1ccc(F)cc1` [Example 7, 8-[(2,6-diethoxy-4′-fluorobiphenyl-4-yl)methyl]-2-[4-(1-H-tetrazol-5-yl)phenyl]-2,8-diazaspiro[4.5]decan-3-one trifluoromethyl acetate], the half-maximal inhibitory concentration (IC50) at SSTR5 [1] was determined as 1.3 nM. On SSTR5 [2], this molecule came in with an inhibition constant Ki of 0.76 nM.
For the molecule `CCOc1cc(CN2CCC3(CC2)CC(=O)N(c2ccc(C(=O)O)cn2)C3)cc(OCC)c1-c1ccc(F)cc1` [Example 84], on SSTR5 [1], the IC50 was determined as 4.7 nM. On SSTR5 [2], this molecule registered an inhibition constant (Ki) of 7.7 nM.
For `CCOc1cc(CN2CCC3(CC2)CC(=O)N(Cc2ccc(F)cc2)C3)cc(OCC)c1-c1ccc(F)cc1` [Example 53], in that order: 8.6 nM and 3.9 nM.
Turning to `CCOc1cc(CN2CCC3(CC2)CC(=O)N(c2ccc(-c4noc(=O)[nH]4)cc2)C3)cc(OCC)c1-c1ccc(F)cc1` [Example 6, 8-[(2,6-diethoxy-4′-fluorobiphenyl-4-yl)methyl]-2-[4-(5-oxo-4,5-dihydro-1,2,4-oxadiazol-3-yl)phenyl]-2,8-diazaspiro[4.5]decan-3-one], the IC50 on SSTR5 [1] amounted to 1.8 nM. The molecule further yielded a Ki at SSTR5 [2] of 1 nM.
Consider `CCOc1cc(CN2CCC3(CC2)CC(=O)N(c2ccc(-c4n[nH]c(=O)o4)cc2)C3)cc(OCC)c1-c1ccc(F)cc1` [Example 49], for which the IC50 on SSTR5 [1] is 34 nM. The molecule further came in with an inhibitory constant (Ki) on SSTR5 [2] of 8.9 nM.
`CCOc1cc(CN2CCC3(CC2)CNC(=O)C3)cc(OCC)c1-c1ccc(F)cc1` [Example 1, 8-[(2,6-diethoxy-4′-fluorobiphenyl-4-yl)methyl]-2,8-diazaspiro[4.5]decan-3-one]: the IC50 at SSTR5 [1] worked out at 52 nM. For the same molecule, the Ki at SSTR5 [2] was 21 nM.
